Experimental data from patent US4266077A, “Naphthalenetetrayltetrakis(sulfonylimino)-aryl multicarboxylic acids and salts thereof” (priority 1979, dated 1981).
Like-named read-outs stand apart in the source and are kept apart here.

Tests used:
activated human C1 = biological target: T1, activated human C1 (Homo sapiens, UniProt P09871); experiment: Test Code 026 (C1 inhibitor); assay type: biochemical; conditions: serial dilution assay, twofold dilutions; higher well number indicates higher activity
T1 construct: C1r and C1s cleaved to two-chain proteases
Source text: (§1) An active inhibitor protects C2 from C1 and C4; (ii) Test Code 035 (C3-C9 inhibitor): This test determines the ability of the late components of human complement (C3-C9) to lyse EAC 142 in the presence of appropriate dilutions of the test compound. An active inhibitor protects EAC 142 from lysis by human C3-C9; (iii) Test Code 036 (C-Shunt inhibitor): In this test human erythrocytes rendered fragile are lysed in autologous serum via the shunt pathway activated by cobra venom factor in the presence of appropriate dilutions of the test compound. Inhibition of the shunt pathway results in failure of lysis; (iv) Forssman Vasculitis Test: Here, the well known complement dependent lesion, Forssman vasculitis, is produced in guinea pigs by intradermal injection of rabbit anti-Forssman antiserum. […] Percent inhibition is calculated by comparison with simultaneous controls. […]

[1] = system: late components of human complement (C3-C9); experiment: Test Code 035 (C3-C9 inhibitor), lysis of EAC 142; assay type: biochemical; conditions: serial dilution assay, twofold dilutions; higher well number indicates higher activity
Source text: as §1

[2] = system: shunt pathway activated by cobra venom factor; experiment: Test Code 036 (C-Shunt inhibitor), lysis of human erythrocytes in autologous serum; assay type: biochemical; conditions: serial dilution assay, twofold dilutions; higher well number indicates higher activity
Source text: as §1

[3] = system: complement activity of sera; experiment: Guinea Pig Intraperitoneal Test (GPIP); assay type: in vivo; conditions: Cavia porcellus, ip, 200 mg./kg. i.p.
Source text: An active inhibitor protects C2 from C1 and C4; (ii) Test Code 035 (C3-C9 inhibitor): This test determines the ability of the late components of human complement (C3-C9) to lyse EAC 142 in the presence of appropriate dilutions of the test compound. An active inhibitor protects EAC 142 from lysis by human C3-C9; (iii) Test Code 036 (C-Shunt inhibitor): In this test human erythrocytes rendered fragile are lysed in autologous serum via the shunt pathway activated by cobra venom factor in the presence of appropriate dilutions of the test compound. Inhibition of the shunt pathway results in failure of lysis; (iv) Forssman Vasculitis Test: Here, the well known complement dependent lesion, Forssman vasculitis, is produced in guinea pigs by intradermal injection of rabbit anti-Forssman antiserum. The lesion is measured in terms of diameter, edema and hemorrhage and the extent to which a combined index of these is inhibited by prior intraperitoneal injection of the test compound at 200 mg./kg. is then reported, unless otherwise stated; (v) Forssman Shock Test: Lethal shock is produced in guinea pigs by an i.v. injection of anti-Forssman antiserum and the harmonic mean death time of treated guinea pigs is compared with that of simultaneous controls; (vi) Complement Level Reduction Test: In this test, the above dosed guinea pigs, or others, are bled for serum and the complement level is determined in undiluted serum by the capillary tube method of U.S. Pat. No. 3,876,376 and compared to undosed control guinea pigs; (vii) Cap 50 Test: Here, appropriate amounts of the test compound are added to a pool of guinea pig serum in vitro, after which the undiluted serum capillary tube assay referred to above is run. The concentration of compound inhibiting 50% is reported; (viii) Guinea Pig Intraperitoneal Test (GPIP): Guinea pigs weighing about 300 g. are dosed intraperitoneally (i.p.) with 200 mg./kg. of the test compound dissolved in saline and adjusted to pH 7-8. Approximately 0.4 ml. blood samples, taken by orbital sinus puncture 30 minutes and one hour after injections, are collected directly into centrifuge tubes; 5 ml. blood samples, taken by decapitation 2 hours after injection are collected directly into diSPo® beakers. The samples were allowed to clot, centrifuged, and the resultant sera are assayed for complement activity using the capillary complement assay. Percent inhibition is calculated by comparison with simultaneous controls. The results appear in Table I together with results of Test Code 026, 035, 036, Cap 50 and % Inhibition.

[4] = 0.5 h, serum 30 minutes after injection, read-out: In Vivo Activity (Guinea Pig) % Inhibition Intraperitoneal, 30 minutes
[5] = 1 h, serum 60 minutes after injection, read-out: In Vivo Activity (Guinea Pig) % Inhibition Intraperitoneal, 60 minutes
[6] = 2 h, serum 120 minutes after injection, read-out: In Vivo Activity (Guinea Pig) % Inhibition Intraperitoneal, 120 minutes

T1 sequence (P09871 16-688): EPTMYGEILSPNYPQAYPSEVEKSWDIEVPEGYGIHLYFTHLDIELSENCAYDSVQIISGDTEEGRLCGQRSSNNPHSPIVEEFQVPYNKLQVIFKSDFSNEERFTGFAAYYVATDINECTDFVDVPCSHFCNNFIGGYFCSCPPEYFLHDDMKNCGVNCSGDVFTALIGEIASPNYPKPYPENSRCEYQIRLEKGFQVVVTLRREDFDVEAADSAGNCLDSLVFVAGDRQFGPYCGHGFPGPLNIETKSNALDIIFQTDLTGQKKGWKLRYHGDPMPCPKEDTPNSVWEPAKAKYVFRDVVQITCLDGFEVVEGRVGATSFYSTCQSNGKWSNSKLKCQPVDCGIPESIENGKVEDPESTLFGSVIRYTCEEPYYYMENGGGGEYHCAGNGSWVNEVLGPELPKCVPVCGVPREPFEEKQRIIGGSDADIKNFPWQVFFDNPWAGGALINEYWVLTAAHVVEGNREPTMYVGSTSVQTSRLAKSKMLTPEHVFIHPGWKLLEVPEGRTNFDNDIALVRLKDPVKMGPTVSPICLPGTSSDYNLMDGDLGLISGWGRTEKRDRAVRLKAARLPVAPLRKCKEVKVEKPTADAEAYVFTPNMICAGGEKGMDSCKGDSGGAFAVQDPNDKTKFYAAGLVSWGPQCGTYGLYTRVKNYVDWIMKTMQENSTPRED
T1 sequence (P00736 18-705 partner): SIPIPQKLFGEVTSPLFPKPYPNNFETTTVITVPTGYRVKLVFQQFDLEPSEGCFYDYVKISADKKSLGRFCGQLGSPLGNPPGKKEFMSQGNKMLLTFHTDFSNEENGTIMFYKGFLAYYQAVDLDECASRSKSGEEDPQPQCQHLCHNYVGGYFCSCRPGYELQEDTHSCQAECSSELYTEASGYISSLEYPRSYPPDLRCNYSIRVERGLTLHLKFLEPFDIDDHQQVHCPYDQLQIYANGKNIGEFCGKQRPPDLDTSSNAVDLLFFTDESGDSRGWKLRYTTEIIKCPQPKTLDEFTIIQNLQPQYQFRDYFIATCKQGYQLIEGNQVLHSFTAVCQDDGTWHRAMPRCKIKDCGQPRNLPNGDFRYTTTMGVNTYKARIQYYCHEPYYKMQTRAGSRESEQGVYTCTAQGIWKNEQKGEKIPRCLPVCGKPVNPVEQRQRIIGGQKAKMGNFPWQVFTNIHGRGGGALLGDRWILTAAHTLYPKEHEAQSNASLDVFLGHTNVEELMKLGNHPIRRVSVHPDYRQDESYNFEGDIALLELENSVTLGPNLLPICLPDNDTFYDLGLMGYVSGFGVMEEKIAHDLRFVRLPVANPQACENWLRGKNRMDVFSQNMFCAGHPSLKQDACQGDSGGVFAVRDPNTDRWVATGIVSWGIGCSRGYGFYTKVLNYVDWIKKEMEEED
T1 sequence (P02745 23-245 partner): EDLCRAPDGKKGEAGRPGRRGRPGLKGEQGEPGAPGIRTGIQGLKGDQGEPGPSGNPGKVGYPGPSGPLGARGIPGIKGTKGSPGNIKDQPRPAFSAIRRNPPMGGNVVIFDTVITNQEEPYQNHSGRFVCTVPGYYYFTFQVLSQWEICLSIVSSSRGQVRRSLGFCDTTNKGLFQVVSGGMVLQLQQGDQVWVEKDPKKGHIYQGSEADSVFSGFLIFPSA
T1 sequence (P02746 28-253 partner): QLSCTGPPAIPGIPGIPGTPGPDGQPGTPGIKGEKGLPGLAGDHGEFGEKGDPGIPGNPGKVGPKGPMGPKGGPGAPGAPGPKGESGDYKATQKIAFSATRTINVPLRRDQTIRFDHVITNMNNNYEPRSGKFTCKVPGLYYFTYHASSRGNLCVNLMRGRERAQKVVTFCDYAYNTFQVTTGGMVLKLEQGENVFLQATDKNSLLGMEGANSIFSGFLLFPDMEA
T1 sequence (P02747 29-245 partner): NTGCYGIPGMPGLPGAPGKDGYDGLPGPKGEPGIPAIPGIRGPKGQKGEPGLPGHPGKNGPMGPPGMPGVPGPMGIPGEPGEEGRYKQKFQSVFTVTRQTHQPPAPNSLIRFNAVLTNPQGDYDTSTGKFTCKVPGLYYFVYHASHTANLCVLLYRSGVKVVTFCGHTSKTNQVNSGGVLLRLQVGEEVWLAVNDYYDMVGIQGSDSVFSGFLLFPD

SMILES: O=C([O-])c1cc(NS(=O)(=O)c2cc(S(=O)(=O)Nc3cc(C(=O)[O-])cc(C(=O)[O-])c3)c3cc(S(=O)(=O)Nc4cc(C(=O)[O-])cc(C(=O)[O-])c4)cc(S(=O)(=O)Nc4cc(C(=O)[O-])cc(C(=O)[O-])c4)c3c2)cc(C(=O)[O-])c1.[Na+].[Na+].[Na+].[Na+].[Na+].[Na+].[Na+].[Na+] [5,5',5",5'"-[1,3,5,7-Naphthalenetetrayltetrakis(sulfonylimino)]-tetra-1,3-benzenedicarboxylic acid, octasodium salt]
- Cl 026 Wells (activated human C1): +7 Wells
- C-Late 035 Wells [1]: +2 Wells
- Shunt Inhibition 036 Wells [2]: +6 Wells
- inhibition at 200 mg/kg [3, 4]: -66%
- inhibition at 200 mg/kg [3, 5]: -71%
- inhibition at 200 mg/kg [3, 6]: -76%

SMILES: O=C([O-])c1cc(NS(=O)(=O)c2cc(S(=O)(=O)Nc3cc(C(=O)[O-])c(C(=O)[O-])c(C(=O)[O-])c3)c3cc(S(=O)(=O)Nc4cc(C(=O)[O-])c(C(=O)[O-])c(C(=O)[O-])c4)cc(S(=O)(=O)Nc4cc(C(=O)[O-])c(C(=O)[O-])c(C(=O)[O-])c4)c3c2)cc(C(=O)[O-])c1C(=O)[O-].[Na+].[Na+].[Na+].[Na+].[Na+].[Na+].[Na+].[Na+].[Na+].[Na+].[Na+].[Na+] [5,5',5",5'"-[1,3,5,7-Naphthalenetetrayltetrakis[sulfonylimino)]-tetra-1,2,3-benzenetricarboxylic acid, dodecasodium salt]
- Cl 026 Wells (activated human C1): +2 Wells
- C-Late 035 Wells [1]: +4 Wells
- Shunt Inhibition 036 Wells [2]: +6 Wells
- inhibition at 200 mg/kg [3, 4]: -80%
- inhibition at 200 mg/kg [3, 5]: -77%
- inhibition at 200 mg/kg [3, 6]: -85%
